PMC8185074, “Anchor extension: a structure-guided approach to design cyclic peptides targeting enzyme active sites” (Nature Communications, 2021)
Peptide text beside a SMILES is read from it.

Columns and labels:
HDAC6 = target: T1, HDAC6 (Homo sapiens, UniProt Q9UBN7); experiment: HDAC6 inhibition, full IC50 measurement (Reaction Biology; fluorogenic p53 peptide RHKK(Ac)AMC); assay type: biochemical
T1 construct: purchased Reaction Biology Corporation (assay run by the CRO)
T1 sequence (Q9UBN7 1-1215): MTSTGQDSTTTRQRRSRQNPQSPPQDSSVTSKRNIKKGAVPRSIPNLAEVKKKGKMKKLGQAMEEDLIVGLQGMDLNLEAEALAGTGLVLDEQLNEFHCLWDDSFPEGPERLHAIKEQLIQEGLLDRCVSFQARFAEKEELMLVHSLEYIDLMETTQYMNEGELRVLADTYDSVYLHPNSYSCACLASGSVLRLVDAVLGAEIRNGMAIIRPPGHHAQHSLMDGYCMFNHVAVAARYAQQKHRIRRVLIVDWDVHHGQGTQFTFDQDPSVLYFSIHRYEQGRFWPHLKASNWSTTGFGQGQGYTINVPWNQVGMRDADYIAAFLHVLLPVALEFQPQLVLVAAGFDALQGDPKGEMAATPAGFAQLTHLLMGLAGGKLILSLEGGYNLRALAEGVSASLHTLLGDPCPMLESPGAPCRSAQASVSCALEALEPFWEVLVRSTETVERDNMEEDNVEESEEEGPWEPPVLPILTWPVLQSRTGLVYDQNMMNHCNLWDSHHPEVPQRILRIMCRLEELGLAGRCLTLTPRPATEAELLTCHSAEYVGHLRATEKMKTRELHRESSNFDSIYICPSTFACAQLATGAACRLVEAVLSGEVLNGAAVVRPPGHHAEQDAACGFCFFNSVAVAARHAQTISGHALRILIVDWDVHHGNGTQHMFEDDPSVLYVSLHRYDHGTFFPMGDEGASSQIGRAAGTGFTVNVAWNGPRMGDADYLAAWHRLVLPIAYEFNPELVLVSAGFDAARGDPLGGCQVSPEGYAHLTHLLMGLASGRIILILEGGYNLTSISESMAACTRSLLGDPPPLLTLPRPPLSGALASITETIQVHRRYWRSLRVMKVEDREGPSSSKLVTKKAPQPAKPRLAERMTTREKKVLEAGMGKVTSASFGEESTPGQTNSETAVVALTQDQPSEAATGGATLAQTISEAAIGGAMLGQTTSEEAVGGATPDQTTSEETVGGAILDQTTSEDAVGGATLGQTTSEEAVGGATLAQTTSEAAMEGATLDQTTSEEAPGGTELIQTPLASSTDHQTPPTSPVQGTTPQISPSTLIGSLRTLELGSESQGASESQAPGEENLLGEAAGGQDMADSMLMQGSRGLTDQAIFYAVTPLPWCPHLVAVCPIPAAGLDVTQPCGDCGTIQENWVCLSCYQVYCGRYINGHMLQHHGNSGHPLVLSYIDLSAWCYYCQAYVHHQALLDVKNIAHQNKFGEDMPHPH
Experimental: (§1) The assay was performed using 50 μM fluorogenic peptide from p53 residues 379-382 [RHKK(Ac)AMC] in a base reaction buffer of 50 mM Tris-HCl at pH 8.0, 137 mM NaCl, 2.7 mM KCl, 1 mM MgCl2, and freshly added 1 mg/ml BSA and 1% DMSO. Peptides were first dissolved in DMSO and then added to the reaction mixture with the enzyme using acoustic technique, enough to reach the desired concentration for that assay point. Peptide concentrations were calculated based on mass of lyophilized peptide and its molecular weight. The substrate was then added and incubated for 1 hour at 30 °C in a sealed container. After the incubation, developer was added to stop the reaction and develop color. Kinetic measurements were then performed for 20 min with Envision with 5 min intervals (Ex/Em = 360/460 nm). The endpoint after plateau was taken for IC50 measurement.
(§2) In cases where duplicate measures are used, average data is reported in the main text or Supplementary Tables.

HDAC2 = target: T2, HDAC2 (Homo sapiens, UniProt Q92769); experiment: HDAC2 inhibition, full IC50 measurement (Reaction Biology; fluorogenic p53 peptide RHKK(Ac)AMC); assay type: biochemical
T2 construct: purchased Reaction Biology Corporation (assay run by the CRO)
Experimental: as §1, §2

T2 sequence (Q92769 whole entry): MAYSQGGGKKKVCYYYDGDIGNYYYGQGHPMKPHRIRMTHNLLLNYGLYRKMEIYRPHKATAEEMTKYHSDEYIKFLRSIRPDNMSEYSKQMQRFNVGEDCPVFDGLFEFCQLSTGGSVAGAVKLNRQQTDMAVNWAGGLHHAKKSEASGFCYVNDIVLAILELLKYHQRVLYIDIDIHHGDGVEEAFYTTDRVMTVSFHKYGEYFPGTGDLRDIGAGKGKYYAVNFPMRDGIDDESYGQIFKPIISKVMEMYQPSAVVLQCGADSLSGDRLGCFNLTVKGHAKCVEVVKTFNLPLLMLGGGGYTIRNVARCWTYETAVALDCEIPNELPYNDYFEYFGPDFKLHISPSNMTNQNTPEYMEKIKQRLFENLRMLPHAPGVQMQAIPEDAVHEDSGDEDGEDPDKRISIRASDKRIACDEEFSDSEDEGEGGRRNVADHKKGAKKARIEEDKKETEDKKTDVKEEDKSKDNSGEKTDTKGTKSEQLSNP

CCCC[C@H]1NC(=O)[C@H](Cc2ccccc2)NC(=O)[C@H](CCCCCS)NC(=O)[C@@H](CCCNC(=N)N)NC(=O)[C@H](C)NC(=O)[C@@H](CO)NC(=O)[C@@H](C)NC(=O)[C@H](CCCCN)NC1=O [des4.3.1.3, SHA-Phe-dNle-Lys-dAla-dSer-Ala-dArg] (HELM PEPTIDE1{A.[dR].[O=C([C@H](CCCCCS)N[*:1])[*:2]].F.[CCCC[C@@H](N[*:1])C(=O)[*:2]].K.[dA].[dS]}$PEPTIDE1,PEPTIDE1,1:R1-8:R2$$$V2.0)
6-Selectivity: fold potency for HDAC6 over HDAC2 (HDAC6): 140 fold
HDAC6 activity raw data (signal) (HDAC6; Conc. 1.00E-05 M, t1): -1435
HDAC6 activity raw data (signal) (HDAC6; Conc. 1.00E-05 M, t2): 8169
HDAC6 activity raw data (signal) (HDAC6; Conc. 1.11E-06 M, t1): 31133
HDAC6 activity raw data (signal) (HDAC6; Conc. 1.11E-06 M, t2): 32571
HDAC6 activity raw data (signal) (HDAC6; Conc. 1.23E-07 M, t1): 145819
HDAC6 activity raw data (signal) (HDAC6; Conc. 1.23E-07 M, t2): 156860
HDAC6 activity raw data (signal) (HDAC6; Conc. 1.37E-08 M, t1): 703698
HDAC6 activity raw data (signal) (HDAC6; Conc. 1.37E-08 M, t2): 730719
HDAC6 activity raw data (signal) (HDAC6; Conc. 1.52E-09 M, t1): 1278425
HDAC6 activity raw data (signal) (HDAC6; Conc. 1.52E-09 M, t2): 1354635
HDAC6 activity raw data (signal) (HDAC6; Conc. 3.33E-06 M, t1): -1405
HDAC6 activity raw data (signal) (HDAC6; Conc. 3.33E-06 M, t2): 24989
HDAC6 activity raw data (signal) (HDAC6; Conc. 3.70E-07 M, t1): 60632
HDAC6 activity raw data (signal) (HDAC6; Conc. 3.70E-07 M, t2): 66340
HDAC6 activity raw data (signal) (HDAC6; Conc. 4.12E-08 M, t1): 363100
HDAC6 activity raw data (signal) (HDAC6; Conc. 4.12E-08 M, t2): 336992
HDAC6 activity raw data (signal) (HDAC6; Conc. 4.57E-09 M, t1): 1071704
HDAC6 activity raw data (signal) (HDAC6; Conc. 4.57E-09 M, t2): 1051810
HDAC6 activity raw data (signal) (HDAC6; Conc. 5.08E-10 M, t1): 1597632
HDAC6 activity raw data (signal) (HDAC6; Conc. 5.08E-10 M, t2): 1554939
HDAC2 activity raw data (signal) (HDAC2; Conc. 1.00E-05 M, t1): 193929
HDAC2 activity raw data (signal) (HDAC2; Conc. 1.00E-05 M, t2): 207672
HDAC2 activity raw data (signal) (HDAC2; Conc. 1.11E-06 M, t1): 922315
HDAC2 activity raw data (signal) (HDAC2; Conc. 1.11E-06 M, t2): 983057
HDAC2 activity raw data (signal) (HDAC2; Conc. 1.23E-07 M, t1): 1473586
HDAC2 activity raw data (signal) (HDAC2; Conc. 1.23E-07 M, t2): 1600746
HDAC2 activity raw data (signal) (HDAC2; Conc. 1.37E-08 M, t1): 1736023
HDAC2 activity raw data (signal) (HDAC2; Conc. 1.37E-08 M, t2): 1721378
HDAC2 activity raw data (signal) (HDAC2; Conc. 1.52E-09 M, t1): 1807312
HDAC2 activity raw data (signal) (HDAC2; Conc. 1.52E-09 M, t2): 1809308
HDAC2 activity raw data (signal) (HDAC2; Conc. 3.33E-06 M, t1): 507679
HDAC2 activity raw data (signal) (HDAC2; Conc. 3.33E-06 M, t2): 555133
HDAC2 activity raw data (signal) (HDAC2; Conc. 3.70E-07 M, t1): 1323328
HDAC2 activity raw data (signal) (HDAC2; Conc. 3.70E-07 M, t2): 1396903
HDAC2 activity raw data (signal) (HDAC2; Conc. 4.12E-08 M, t1): 1569368
HDAC2 activity raw data (signal) (HDAC2; Conc. 4.12E-08 M, t2): 1738468
HDAC2 activity raw data (signal) (HDAC2; Conc. 4.57E-09 M, t1): 1706591
HDAC2 activity raw data (signal) (HDAC2; Conc. 4.57E-09 M, t2): 1632561
HDAC2 activity raw data (signal) (HDAC2; Conc. 5.08E-10 M, t1): 1698338
HDAC2 activity raw data (signal) (HDAC2; Conc. 5.08E-10 M, t2): 1730008

CCCC[C@H]1NC(=O)[C@H](Cc2ccccc2)NC(=O)[C@H](CCCCCS)NC(=O)[C@@H](CO)NC(=O)[C@H](CC(=O)O)NC(=O)[C@@H](CO)NC(=O)[C@@H](C)NC(=O)[C@H](CCCCN)NC1=O [des4.3.1.1, SHA-Phe-dNle-Lys-dAla-dSer-Asp-dSer] (HELM PEPTIDE1{D.[dS].[O=C([C@H](CCCCCS)N[*:1])[*:2]].F.[CCCC[C@@H](N[*:1])C(=O)[*:2]].K.[dA].[dS]}$PEPTIDE1,PEPTIDE1,1:R1-8:R2$$$V2.0)
6-Selectivity: fold potency for HDAC6 over HDAC2 (HDAC6): 31.25 fold
HDAC6 activity raw data (signal) (HDAC6; Conc. 1.00E-05 M, t1): 121881
HDAC6 activity raw data (signal) (HDAC6; Conc. 1.00E-05 M, t2): 130414
HDAC6 activity raw data (signal) (HDAC6; Conc. 1.11E-06 M, t1): 580651
HDAC6 activity raw data (signal) (HDAC6; Conc. 1.11E-06 M, t2): 615445
HDAC6 activity raw data (signal) (HDAC6; Conc. 1.23E-07 M, t1): 1294999
HDAC6 activity raw data (signal) (HDAC6; Conc. 1.23E-07 M, t2): 1440536
HDAC6 activity raw data (signal) (HDAC6; Conc. 1.37E-08 M, t1): 1520011
HDAC6 activity raw data (signal) (HDAC6; Conc. 1.37E-08 M, t2): 1756812
HDAC6 activity raw data (signal) (HDAC6; Conc. 1.52E-09 M, t1): 1628369
HDAC6 activity raw data (signal) (HDAC6; Conc. 1.52E-09 M, t2): 1677368
HDAC6 activity raw data (signal) (HDAC6; Conc. 3.33E-06 M, t1): 268413
HDAC6 activity raw data (signal) (HDAC6; Conc. 3.33E-06 M, t2): 332099
HDAC6 activity raw data (signal) (HDAC6; Conc. 3.70E-07 M, t1): 971918
HDAC6 activity raw data (signal) (HDAC6; Conc. 3.70E-07 M, t2): 981413
HDAC6 activity raw data (signal) (HDAC6; Conc. 4.12E-08 M, t1): 1459081
HDAC6 activity raw data (signal) (HDAC6; Conc. 4.12E-08 M, t2): 1648611
HDAC6 activity raw data (signal) (HDAC6; Conc. 4.57E-09 M, t1): 1570327
HDAC6 activity raw data (signal) (HDAC6; Conc. 4.57E-09 M, t2): 1728944
HDAC6 activity raw data (signal) (HDAC6; Conc. 5.08E-10 M, t1): 1620579
HDAC6 activity raw data (signal) (HDAC6; Conc. 5.08E-10 M, t2): 1733616
HDAC2 activity raw data (signal) (HDAC2; Conc. 1.00E-05 M, t1): 1283086
HDAC2 activity raw data (signal) (HDAC2; Conc. 1.00E-05 M, t2): 1486401
HDAC2 activity raw data (signal) (HDAC2; Conc. 1.11E-06 M, t1): 1660902
HDAC2 activity raw data (signal) (HDAC2; Conc. 1.11E-06 M, t2): 1799195
HDAC2 activity raw data (signal) (HDAC2; Conc. 1.23E-07 M, t1): 1764651
HDAC2 activity raw data (signal) (HDAC2; Conc. 1.23E-07 M, t2): 1879798
HDAC2 activity raw data (signal) (HDAC2; Conc. 1.37E-08 M, t1): 1818162
HDAC2 activity raw data (signal) (HDAC2; Conc. 1.37E-08 M, t2): 1980324
HDAC2 activity raw data (signal) (HDAC2; Conc. 1.52E-09 M, t1): 1787655
HDAC2 activity raw data (signal) (HDAC2; Conc. 1.52E-09 M, t2): 1860263
HDAC2 activity raw data (signal) (HDAC2; Conc. 3.33E-06 M, t1): 1631295
HDAC2 activity raw data (signal) (HDAC2; Conc. 3.33E-06 M, t2): 1725891
HDAC2 activity raw data (signal) (HDAC2; Conc. 3.70E-07 M, t1): 1679365
HDAC2 activity raw data (signal) (HDAC2; Conc. 3.70E-07 M, t2): 1920676
HDAC2 activity raw data (signal) (HDAC2; Conc. 4.12E-08 M, t1): 1853084
HDAC2 activity raw data (signal) (HDAC2; Conc. 4.12E-08 M, t2): 2007168
HDAC2 activity raw data (signal) (HDAC2; Conc. 4.57E-09 M, t1): 1817065
HDAC2 activity raw data (signal) (HDAC2; Conc. 4.57E-09 M, t2): 1855125
HDAC2 activity raw data (signal) (HDAC2; Conc. 5.08E-10 M, t1): 1872757
HDAC2 activity raw data (signal) (HDAC2; Conc. 5.08E-10 M, t2): 1875796
